# Test results as given in patent US20260365641A1, “Aromatic Acetylene Derivative, Preparation Method Therefor, And Use Thereof” (Zhejiang Hisun Pharmaceutical Co., Ltd., priority 2022, published 2026).
# Assays:
# [1] = biological target: T1, recombinant Pseudomonas aeruginosa LpxC (Pseudomonas aeruginosa, UniProt P47205); experiment: Inhibition of enzymatic activity of recombinant Pseudomonas aeruginosa LpxC in vitro; format: biochemical; details: 5 nM LpxC; substrate UDP-3-O—(R-3-hydroxydecanoyl)-GlcNAc; 25 °C, 120 minutes; fluorescamine readout
# T1 construct: purchased Signalway Antibody AP74647-2
# T1 sequence (P47205 1-303): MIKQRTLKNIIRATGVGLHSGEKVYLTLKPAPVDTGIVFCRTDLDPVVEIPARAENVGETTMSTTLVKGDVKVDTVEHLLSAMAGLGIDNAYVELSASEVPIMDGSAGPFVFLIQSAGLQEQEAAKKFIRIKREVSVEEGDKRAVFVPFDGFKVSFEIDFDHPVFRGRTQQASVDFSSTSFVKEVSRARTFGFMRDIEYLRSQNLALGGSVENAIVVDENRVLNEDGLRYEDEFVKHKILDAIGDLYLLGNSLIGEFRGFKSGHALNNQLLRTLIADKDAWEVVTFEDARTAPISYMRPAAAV
# Protocol: The following method was used to determine degrees of inhibition of the compounds of the present invention on the enzymatic activity of recombinant Pseudomonas aeruginosa LpxC in vitro.
# The test process was briefly described as follows: the tested compound was first dissolved in DMSO to prepare a 10 mM storage solution. The reaction was carried out in a 96-well microplate. Firstly, 20 μL of recombinant Pseudomonas aeruginosa LpxC (purchased from Signalway Antibody, article number AP74647-2) was added into the wells, and the final concentrations were 5 nM respectively. 5 μL of the compound to be tested was added, diluted in 4-fold, with 8 concentration points, and the concentration range was 0.61-10000 nM. 5 μL of LpxC substrate UDP-3-O—(R-3-hydroxydecanoyl)-GlcNAc (purchased from Biosynth Carbosynth, article number mu75071) was added, wherein a final concentration of the substrate was […], and the substrate was incubated at 25 °C for 120 minutes. Subsequently, 20 μL of 2.0 mg/mL fluorescamine (purchased from sigma aldrich, article number F9015, wherein a solvent was dimethylformamide/acetonitrile (1:1)) was added to the reaction system, mixed evenly and reacted for 10 minutes. Finally, 50 μL of 200 mM sodium phosphate buffer solution (pH 8.0) was added to stop the reaction, and a microplate reader (BMG) was used for reading. An excitation wavelength and an emission wavelength were 390 nm and 495 nm respectively. Compared with the fluorescence intensity ratio of a control group (0.1% DMSO), the percentage inhibition rates of the compounds at each concentration were calculated, and the IC50 values of the compounds were obtained by performing nonlinear regression analysis with logarithmic value of the compound concentration-inhibition rate by GraphPad Prism 5 software, which can be seen in Table 1.
# E. coli ATCC 25922 = experiment: Antibacterial activity, minimum inhibitory concentration (MIC) in vitro, broth dilution; format: cell-based; details: Escherichia coli, ATCC25922, 5×10^5 cfu/mL, 35 °C, 18-24 hours
# Protocol: (§1) The minimum inhibitory concentration (MIC) in vitro was determined according to CLSI's guidelines, and a minimal broth dilution method was used.
# (§2) The test process was briefly described as follows: the tested compound was dissolved in DMSO to prepare a storage solution of […], and then prepared into 11 two-fold-diluted 100× high-concentration working liquids (a final concentration of the system was 64 μg/mL to 0.06 μg/mL) by DMSO. Stains (K. pneumoniae ATCC13883, K. pneumoniae ATCC51504 and E. coli ATCC 25922) frozen at −80 °C with glycerin were inoculated to a solid agar culture medium, placed into an incubator for culturing for 18-24 hours at 35 °C to finish the preparation work of the strains. A proper amount of solid plate culture was collected, re-suspended in normal saline, and uniformly mixed. The turbidity of the bacterial suspension was adjusted to a proper turbidity by a turbidity meter, containing about 1×10^8 cfu/mL of bacteria. Then, the turbidity-regulated bacterial suspension was diluted with a test culture medium (type: CAMHIIB, purchased from BD company) to a bacterial concentration of 5×10^5 cfu/mL, thus finishing the preparation of an inoculation solution. 198 μL of the inoculation solution was inoculated into a 96-well plate, and added with 2 μL 100× high concentration working liquid of the compound, then the 96-well plate was placed at 35 °C for culturing for 18-24 hours.
# K. pneumoniae ATCC51504 = experiment: as above; format: cell-based; details: Klebsiella pneumoniae, 5×10^5 cfu/mL, 35 °C, 18-24 hours
# Protocol: as §1, §2
Compound,IC50 [1],MIC (E. coli ATCC 25922),MIC (K. pneumoniae ATCC51504)
"C[C@H](O)c1nccn1Cc1cc(-c2ccc(C#CC3CC4(CCN(CCO)CC4)C3)cc2)on1 [Example 11, (S)-2-(2-((4-(3-((2-(1-hydroxyethyl)-1H-imidazol-1-yl)methyl)isoxazol-5-yl)phenyl)ethynyl)-7-azaspiro[3.5]nonan-7-yl)ethan-1-ol]",8.66 nM,–,–
"C[C@H](O)c1nccn1Cc1cc(-c2ccc(C#CC3=CCN(C(=O)Cn4cncn4)CC3)cc2)on1 [Example 37, (S)-1-(4-((4-(3-((2-(1-hydroxyethyl)-1H-imidazol-1-yl)methyl)isoxazol-5-yl)phenyl)ethynyl)-3,6-dihydropyridin-1(2H)-yl)-2-(1H-1,2,4-triazol-1-yl)ethan-1-one]",–,2 µg/mL,2 µg/mL
"C[C@H](O)c1nccn1Cc1cc(-c2ccc(C#CC3CC4(CCN(CCCC(N)=O)CC4)C3)cc2)on1 [Example 8, (S)-4-(2-((4-(3-((2-(1-hydroxyethyl)-1H-imidazol-1-yl)methyl)isoxazol-5-yl)phenyl)ethynyl)-7-azaspiro[3.5]nonan-7-yl)butanamide]",19.3 nM,–,–
"C[C@H](O)c1nccn1Cc1cc(-c2ccc(C#CC3CC4(CCN(C(N)=O)C4)C3)cc2)on1 (stereo partly drawn) [Example 24, (S)-2-((4-(3-((2-(1-hydroxyethyl)-1H-imidazol-1-yl)methyl)isoxazol-5-yl)phenyl)ethynyl)-6-azaspiro[3.4]octane-6-carboxamide]",6.9 nM,–,–
"C[C@H](O)c1nccn1Cc1cc(-c2ccc(C#CC3CC4(C3)CN(C(=O)CC#N)C4)cc2)on1 [Example 32, (S)-3-(6-((4-(3-((2-(1-hydroxyethyl)-1H-imidazol-1-yl)methyl)isoxazol-5-yl)phenyl)ethynyl)-2-azaspiro[3.3]heptan-2-yl)-3-oxopropanenitrile]",22.5 nM,–,–
"C[C@H](O)c1nccn1Cc1cc(-c2ccc(C#CC3CC4(C3)CN(C(=O)N3CCC(O)CC3)C4)cc2)on1 [Example 51, (S)-(6-((4-(3-((2-(1-hydroxyethyl)-1H-imidazol-1-yl)methyl)isoxazol-5-yl)phenyl)ethynyl)-2-azaspiro[3.3]heptan-2-yl)(4-hydroxypiperidin-1-yl)methanone]",15.1 nM,–,–
"C[C@H](O)c1nccn1Cc1cc(-c2ccc(C#CC3CC4(C3)CN(Cc3ncc[nH]3)C4)cc2)on1 [Example 46, (S)-1-(1-((5-(4-((2-((1H-imidazol-2-yl)methyl)-2-azaspiro[3.3]heptan-6-yl)ethynyl)phenyl)isoxazol-3-yl)methyl)-1H-imidazol-2-yl)ethan-1-ol]",21.5 nM,–,–
"C[C@H](O)c1nccn1Cc1cc(-c2ccc(C#CC3CC4(CCN(CC(=O)O)CC4)C3)cc2)on1 [Example 10, (S)-2-(2-((4-(3-((2-(1-hydroxyethyl)-1H-imidazol-1-yl)methyl)isoxazol-5-yl)phenyl)ethynyl)-7-azaspiro[3.5]nonan-7-yl)acetic acid]",22.8 nM,–,–
"C[C@H](O)c1nccn1Cc1cc(-c2ccc(C#CC3CC4(CCN(C(=O)CC(N)=O)CC4)C3)cc2)on1 [Example 15, (S)-3-(2-((4-(3-((2-(1-hydroxyethyl)-1H-imidazol-1-yl)methyl)isoxazol-5-yl)phenyl)ethynyl)-7-azaspiro[3.5]nonan-7-yl)-3-oxopropanamide]",4.42 nM,–,–
"C[C@H](O)c1nccn1Cc1cc(-c2ccc(C#CC3CC4(CCN(CCCC(=O)O)C4)C3)cc2)on1 (stereo partly drawn) [Example 4, (S)-4-(2-((4-(3-((2-(1-hydroxyethyl)-1H-imidazol-1-yl)methyl)isoxazol-5-yl)phenyl)ethynyl)-6-azaspiro[3.4]octan-6-yl)butanoic acid]",23.4 nM,–,–
"C[C@H](O)c1nccn1Cc1cc(-c2ccc(C#CC3CC4(CCN(C5CNC5)CC4)C3)cc2)on1 [Example 30, (S)-1-(1-((5-(4-((7-(azetidin-3-yl)-7-azaspiro[3.5]nonan-2-yl)ethynyl)phenyl)isoxazol-3-yl)methyl)-1H-imidazol-2-yl)ethan-1-ol]",16.2 nM,–,–
"C[C@H](O)c1nccn1Cc1cc(-c2ccc(C#CC3CC4(CCN(C(=O)CO)C4)C3)cc2)on1 (stereo partly drawn) [Example 28, (S)-2-hydroxy-1-(2-((4-(3-((2-(1-hydroxyethyl)-1H-imidazol-1-yl)methyl)isoxazol-5-yl)phenyl)ethynyl)-6-azaspiro[3.4]octan-6-yl)ethan-1-one]",14.1 nM,–,–
"C[C@H](O)c1nccn1Cc1cc(-c2ccc(C#CC3CC4(CCN(CCC(=O)O)CC4)C3)cc2)on1 [Example 5, (S)-3-(2-((4-(3-((2-(1-hydroxyethyl)-1H-imidazol-1-yl)methyl)isoxazol-5-yl)phenyl)ethynyl)-7-azaspiro[3.5]nonan-7-yl)propanoic acid]",7.03 nM,–,–
"C[C@H](O)c1nccn1Cc1cc(-c2ccc(C#CC3CC4(C3)CN(C(=O)NCCO)C4)cc2)on1 [Example 50, (S)-N-(2-hydroxyethyl)-6-((4-(3-((2-(1-hydroxyethyl)-1H-imidazol-1-yl)methyl)isoxazol-5-yl)phenyl)ethynyl)-2-azaspiro[3.3]heptane-2-carboxamide]",23.5 nM,–,–
"C[C@H](O)c1nccn1Cc1cc(-c2ccc(C#CC3CC4(CCN(C(=O)CC(=O)O)CC4)C3)cc2)on1 [Example 14, (S)-3-(2-((4-(3-((2-(1-hydroxyethyl)-1H-imidazol-1-yl)methyl)isoxazol-5-yl)phenyl)ethynyl)-7-azaspiro[3.5]nonan-7-yl)-3-oxopropanoic acid]",6.81 nM,–,–
"C[C@H](O)c1nccn1Cc1cc(-c2ccc(C#CC3CC4(CCNCC4)C3)cc2)on1 [Example 1, (S)-1-(1-((5-(4-((7-azaspiro[3.5]nonan-2-yl)ethynyl)phenyl)isoxazol-3-yl)methyl)-1H-imidazol-2-yl)ethan-1-ol]",9.46 nM,–,–
"C[C@H](O)c1nccn1Cc1cc(-c2ccc(C#CC3CC4(CCN(CCC(N)=O)CC4)C3)cc2)on1 [Example 9, (S)-3-(2-((4-(3-((2-(1-hydroxyethyl)-1H-imidazol-1-yl)methyl)isoxazol-5-yl)phenyl)ethynyl)-7-azaspiro[3.5]nonan-7-yl)propanamide]",18.8 nM,–,–
"C[C@H](O)c1nccn1Cc1cc(-c2ccc(C#CC3CC4(CCN(C(=O)CN)CC4)C3)cc2)on1 [Example 16, (S)-2-amino-1-(2-((4-(3-((2-(1-hydroxyethyl)-1H-imidazol-1-yl)methyl)isoxazol-5-yl)phenyl)ethynyl)-7-azaspiro[3.5]nonan-7-yl)ethan-1-one]",10.3 nM,–,–
"C[C@H](O)c1nccn1Cc1cc(-c2ccc(C#CC3=CCN(C(=O)C4[C@H]5CCC[C@@H]45)CC3)cc2)on1 (stereo partly drawn) [Example 35, ((1R,5S)-bicyclo[3.1.0]hexan-6-yl)(4-((4-(3-((2-((S)-1-hydroxyethyl)-1H-imidazol-1-yl)methyl)isoxazol-5-yl)phenyl)ethynyl)-3,6-dihydropyridin-1(2H)-yl)methanone]",–,2 µg/mL,2 µg/mL
"C[C@H](O)c1nccn1Cc1cc(-c2ccc(C#CC3CC4(C3)CN(C(=O)C3CCNC(=O)C3)C4)cc2)on1 (stereo partly drawn) [Example 54, 4-(6-((4-(3-((2-((S)-1-hydroxyethyl)-1H-imidazol-1-yl)methyl)isoxazol-5-yl)phenyl)ethynyl)-2-azaspiro[3.3]heptane-2-carbonyl)piperidin-2-one]",15.5 nM,–,–
"C[C@H](O)c1nccn1Cc1cc(-c2ccc(C#CC3CC4(CCN(C(=O)[C@@H](N)CO)CC4)C3)cc2)on1 [Example 18, (S)-2-amino-3-hydroxy-1-(2-((4-(3-((2-((S)-1-hydroxyethyl)-1H-imidazol-1-yl)methyl)isoxazol-5-yl)phenyl)ethynyl)-7-azaspiro[3.5]nonan-7-yl)propan-1-one]",4.42 nM,–,–
